Source: patent US4818759A, “Treatment of disease” (priority 1987, dated 1989)
Read-outs that look alike come from different tables or passages of the source.

Test system: polyarthritis
Experiment: Rat adjuvant arthritis (Freund's adjuvant polyarthritis), global arthritic joint score
Format: in vivo, rats
Settings: po, 384 h, read-out: ED50 (dose that produced a 50% reduction of the average global arthritic joint score relative to a control group)

Row | SMILES | ED50 [mg/kg] | ED50 (rats, in ground meal diet for 14 days from day of sensitization with Freund's adjuvant, evaluated on 16th day after sensitization) [mg/kg]
1 | CC(=O)Oc1ccccc1C(=O)O [Aspirin] | 102 | –
2 | COc1ccc(OC)c(Cc2cnc3nc(N)nc(N)c3c2C)c1 [2,4-diamino-5-methyl-6-(2,5-dimethoxybenzyl)pyrido[2,3-d]pyrimidine isethionate] | – | 19
